# Results: patent US6544511B2, “Plant disease control agent” (Akatsuka Orchid Co., Ltd., priority 2000, dated 2003)
# Numbered stars: 1 amine (or outer) side, 2 acyl side, 3 side chain; on linkers, the order of the positions; unused ones are H or OH. Bridge positions count the residues as written; N and C are the ends. Square brackets hold non-standard residues; d marks the D form. Peptide text beside a SMILES is read from it. I, II: the chains in the order shown. Actinocin(9to1) = Cc1c2oc3c(C)ccc(C(=O)[*:1])c3nc-2c(C(=O)[*:2])c(N)c1=O; NMeV = CN[C@H](C(=O)O)C(C)C; Sar = CNCC(=O)O
# Key:
# [1] = system: Pestalotiopsis sydowiana MAFF No. 305755; test: Antibiotic sensitivity test for pathogenic filamentous fungi (mycelial mat diameter); type: cell-based; settings: for Sensitivity of Pestalotiopsis sydowiana against antibiotic: 0.1, 1, 10 μg/ml in potato sucrose agar medium, 3 days (FIGS. 12, 13)
# Experimental: (§1) Pathogenic filamentous fungi were tested for their sensitivity against antibiotics belonging to actinomycin and polyen anti-fungal antibiotics shown to be produced by R-5 strain. First, actinomycin D or amphotericin B (polyen anti-fungal antibiotic) was dissolved to concentrations of 0.1, 1, and 10 μg/mil in potato sucrose agar medium cooled to about 45° C., and solidified. Mycelial disks with a diameter of 6 mm, which had been stamped out from mycelial mats of Phytophthora cinnamomi MAFF No. 305565 or Pestalotiopsis sydowiana MAFF No. 305755 pre-cultured for 7 days on potato sucrose agar medium, were inoculated onto the potato sucrose agar medium solidified as described above. Each diameter of the mycelial mats was measured with time for 3 days.
# [2] = system: Phytophthora cinnamomi MAFF No. 305565; test: as above; type: cell-based; settings: for Sensitivity of Phytophthora cinnamomi against antibiotic: 0.1, 1, 10 μg/ml in potato sucrose agar medium, 3 days (FIGS. 10, 11)
# Experimental: as §1
SMILES,Growth of the mycelia of Pestalotiopsis sydowiana ([1]; 0.1 μg/ml),Sensitivity of Pestalotiopsis sydowiana against antibiotic [1],Sensitivity of Phytophthora cinnamomi against antibiotic [2],Growth of the mycelia of Pestalotiopsis sydowiana ([1]; 10 μg/ml),Growth of the mycelial mat of Phytophthora cinnamomi ([2]; 10 μg/ml)
C[C@@H]1[C@H](O)[C@@H](C)/C=C/C=C/C=C/C=C/C=C/C=C/C=C/[C@H](O[C@@H]2O[C@H](C)[C@@H](O)[C@H](N)[C@@H]2O)C[C@@H]2O[C@](O)(C[C@@H](O)C[C@@H](O)[C@H](O)CC[C@@H](O)C[C@@H](O)CC(=O)O[C@H]1C)C[C@H](O)[C@H]2C(=O)O [amphotericin B],completely suppressed the growth of the mycelia,high sensitivity,almost no sensitivity,–,–
"Cc1c2oc3c(C)ccc(C(=O)N[C@@H]4C(=O)N[C@H](C(C)C)C(=O)N5CCC[C@H]5C(=O)N(C)CC(=O)N(C)[C@@H](C(C)C)C(=O)O[C@@H]4C)c3nc-2c(C(=O)N[C@@H]2C(=O)N[C@H](C(C)C)C(=O)N3CCC[C@H]3C(=O)N(C)CC(=O)N(C)[C@@H](C(C)C)C(=O)O[C@@H]2C)c(N)c1=O [actinomycin D] (I: T[dV]P[Sar][NMeV] / II: T[dV]P[Sar][NMeV]; ester I:1-I:C, II:1-II:C; linker I:N-II:N via Actinocin(9to1))",–,weak sensitivity,showed sensitivity,significantly suppressed the growth,completely stopped the growth
